Experimental data published in patent US20250177381A1 (SHANGHAI YONSUN BIOTECHNOLOGY CO., LTD., priority 2022, published 2025).
In brackets after ≈: the same amount, converted by molar mass. Where a name gives a salt, the structure may show the parent alone. Read-outs that look alike come from different tables or passages of the source.

Tests used:
Format in all cases: physicochemical
[1] = Solubility in media with different pH values; details: shaken 24 h; for Solubility pH 3 / Solubility pH 4 / Solubility pH 5 / Solubility pH 6: acetate buffer; for Solubility pH 3 / Solubility pH 4 / Solubility pH 5 / Solubility pH 6 / Solubility pH 7 / Solubility pH 7.4 / Solubility pH 8 / Solubility pH 9 / Solubility Water: 37° C.; for Solubility pH 7 / Solubility pH 7.4 / Solubility pH 8 / Solubility pH 9 / solubility at 24 h: phosphate buffer; for solubility at 24 h: 37 °C, thermodynamic from solid
Method: The mixtures were shaken at 37° C. for 24 h and filtered through a 0.45 μm aqueous-phase filter membranes. The filtrates were collected for solubility determination by high performance liquid chromatography. pH 3, pH 4, pH5 and pH 6 represent acetate buffer solutions, and pH 7, pH 7.4, pH 8 and pH 9 represent phosphate buffer solutions.

[2] = Hydrochloride dissociation study (XRPD of residues); details: aqueous media of pH 6, pH 7, pH 7.4, pH 8, pH 9; shaken at 37° C. for 4 h
Method: The mixtures were shaken at 37° C. for 4 h and centrifuged.

[3] = Crystal form stability of solid salt forms (XRPD); details: 60° C., Day 10, listed as crystal form A of cariprazine mono-1-hydroxy-2-naphthoate dihydrate
Method: (4) The XRPD measurements were conducted on a Bruker model D8 Advance X-ray powder diffractometer using a round zero background single crystal silicon sample stage. CuKα rays were used as a light source in the test, and the scanning parameters are as follows: voltage: 40 kv; current: 40 mA; scanning range: 3°-45°; scanning step size: 0.02°; scanning mode: continuous scanning.

[4] = listed as Amorphous cariprazine embonate (Example 7)
[5] = listed as Crystal form A of cariprazine bis-1-hydroxy-2-naphthoate hydrate (Example 5), hydrate
[6] = listed as Crystal form A of cariprazine mono-1-hydroxy-2-naphthoate dihydrate (Example 1), dihydrate

## CN(C)C(=O)NC1CCC(CCN2CCN(c3cccc(Cl)c3Cl)CC2)CC1 (centres unmarked) [Amorphous cariprazine embonate, cariprazine embonate]
[1]; [4]
  Solubility pH 3: 151.2 μg/mL
  Solubility pH 4: 19.1 μg/mL
  Solubility pH 5: 17.7 μg/mL
  Solubility pH 6: 19.0 μg/mL
  Solubility pH 7: 18.8 μg/mL
  Solubility pH 7.4: 9.9 μg/mL
  Solubility pH 8: 4.6 μg/mL
  Solubility pH 9: 4.2 μg/mL
  Solubility Water: 10.4 µg/mL (≈ 24.3 µM)

## CN(C)C(=O)NC1CCC(CCN2CCN(c3cccc(Cl)c3Cl)CC2)CC1 (centres unmarked) [Cariprazine (commercially available), Cariprazine, reference compound]
[1]
  Solubility pH 8: 0.4 μg/mL
  Solubility Water: 179.94 µg/mL (≈ 421 µM)

## CN(C)C(=O)NC1CCC(CCN2CCN(c3cccc(Cl)c3Cl)CC2)CC1 (centres unmarked) [Crystal form C of cariprazine mono-1-hydroxy-2-naphthoate (E]
[1]
  Solubility pH 3: 102.65 μg/mL
  Solubility pH 4: 82.64 μg/mL
  Solubility pH 5: 81.47 μg/mL
  Solubility pH 6: 36.38 μg/mL
  Solubility pH 7: 4.79 μg/mL
  Solubility pH 7.4: 1.53 μg/mL
  Solubility pH 8: 0.51 μg/mL
  Solubility pH 9: 0.31 μg/mL
  Solubility Water: 65.28 µg/mL (≈ 153 µM)

## CN(C)C(=O)NC1CCC(CCN2CCN(c3cccc(Cl)c3Cl)CC2)CC1 (centres unmarked) [cariprazine bis-1-hydroxy-2-naphthoate hydrate]
[1]; [5]
  Solubility pH 3: 36.75 μg/mL
  Solubility pH 4: 65.87 μg/mL
  Solubility pH 5: 20.69 μg/mL
  Solubility pH 6: 15.24 μg/mL
  Solubility pH 7: 6.13 μg/mL
  Solubility pH 7.4: 3.00 μg/mL
  Solubility pH 8: 1.14 μg/mL
  Solubility pH 9: 0.94 μg/mL
  Solubility Water: 55.20 µg/mL

## CN(C)C(=O)N[C@H]1CC[C@H](CCN2CCN(c3cccc(Cl)c3Cl)CC2)CC1 [cariprazine hydrochloride, reference compound]
[2]
  Dissociation in aqueous media (XRPD of residue): dissociated into cariprazine free base
[1]
  Solubility pH 3: 12302.45 μg/mL
  Solubility pH 5: 1081.35 μg/mL
  Solubility Water: 10935.14 µg/mL
[1]; pH 7, aqueous buffer, read-out: Solubility pH 7
  solubility at 24 h: 9.41 µg/mL
[1]; pH 7.4, aqueous buffer, read-out: Solubility pH 7.4
  solubility at 24 h: 2.82 µg/mL
[1]; pH 8, aqueous buffer, read-out: Solubility pH 8
  solubility at 24 h: 0.91 µg/mL
[1]; pH 9, aqueous buffer, read-out: Solubility pH 9
  solubility at 24 h: 0.35 µg/mL

## CN(C)C(=O)NC1CCC(CCN2CCN(c3cccc(Cl)c3Cl)CC2)CC1 (centres unmarked) [cariprazine mono-1-hydroxy-2-naphthoate dihydrate]
[3]
  Crystal form results, High temperature: change into the crystal form C of cariprazine mono-1-hydroxy-2-naphthoate
[1]; [6]
  Solubility pH 3: 166.74 μg/mL
  Solubility pH 4: 72.47 μg/mL
  Solubility pH 5: 72.69 μg/mL
  Solubility pH 6: 41.95 μg/mL
  Solubility pH 7: 5.02 μg/mL
  Solubility pH 7.4: 1.51 μg/mL
  Solubility pH 8: 0.62 μg/mL
  Solubility pH 9: 0.45 μg/mL
  Solubility Water: 60.01 µg/mL
